Results published in US20180000778A1, “SMALL MOLECULE ANTAGONISTS OF DUSP5 AND METHODS OF USE” (THE MEDICAL COLLEGE OF WISCONSIN, INC., priority 2015, published 2018).

Molecular target: T1, PTPN1 (Homo sapiens, UniProt P18031)
T1 sequence (P18031 1-435): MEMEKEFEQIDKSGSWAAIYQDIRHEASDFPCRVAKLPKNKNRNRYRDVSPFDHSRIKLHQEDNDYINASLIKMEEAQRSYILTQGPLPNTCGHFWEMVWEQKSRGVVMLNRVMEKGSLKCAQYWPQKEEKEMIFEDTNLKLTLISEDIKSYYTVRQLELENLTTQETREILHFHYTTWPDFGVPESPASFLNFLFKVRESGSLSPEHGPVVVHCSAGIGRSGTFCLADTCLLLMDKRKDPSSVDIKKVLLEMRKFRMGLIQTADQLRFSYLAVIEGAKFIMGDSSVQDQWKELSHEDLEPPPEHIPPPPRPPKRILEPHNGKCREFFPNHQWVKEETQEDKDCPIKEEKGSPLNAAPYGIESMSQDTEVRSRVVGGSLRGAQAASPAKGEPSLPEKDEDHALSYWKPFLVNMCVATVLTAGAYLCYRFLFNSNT
Experiment: Phosphatase inhibition profiles (Table 4), initial rates
Type: biochemical

## O=S(=O)(O)c1cc(O)c2c(S(=O)(=O)O)cccc2c1 [RR527]
  IC50 PTPN1 (mean ± SE): Does not inhibit
